Laboratory results as given in PubChem BioAssay AID1845212 (Molecular Pharmacology Branch, DTP, NCI, 2023).
pIC50: −log10 of the molar value.

Tested on: NCI-H719 tumor spheroids, viability
Test: Anticancer human tumor NCI-H719 cell line growth inhibition;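 note: spheroids exposed to compounds for seven days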;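 for viability, T/C: percent viability relative to DMSO vehicle control as 100%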
Conditions: spheroids with HUVEC and MSC; for pIC50: curve of first compound; for viability, T/C: stronger effect = lower value
Method in brief: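 Single agents and combinations were tested on spheroids built from tumor cells plus HUVEC and hMSC, at half-log dilutions starting at or near clinical Cmax, else 10 microM; final DMSO 0.25% (v/v).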

[1] = second compound 30 pM, first compound 0.0316 µM
[2] = second compound 30 pM, first compound 0.1 µM
[3] = second compound 30 pM, first compound 0.316 µM
[4] = second compound 30 pM, first compound 1 µM
[5] = second compound 30 pM, first compound 3.16 µM
[6] = second compound 30 pM, first compound 10 µM
[7] = second compound 94.9 pM, first compound 0.0316 µM
[8] = second compound 94.9 pM, first compound 0.1 µM
[9] = second compound 94.9 pM, first compound 0.316 µM
[10] = second compound 94.9 pM, first compound 1 µM
[11] = second compound 94.9 pM, first compound 3.16 µM
[12] = second compound 94.9 pM, first compound 10 µM
[13] = second compound 0.0003 µM, first compound 0.0316 µM
[14] = second compound 0.0003 µM, first compound 0.1 µM
[15] = second compound 0.0003 µM, first compound 0.316 µM
[16] = second compound 0.0003 µM, first compound 1 µM
[17] = second compound 0.0003 µM, first compound 3.16 µM
[18] = second compound 0.0003 µM, first compound 10 µM
[19] = second compound 0.000949 µM, first compound 0.0316 µM
[20] = second compound 0.000949 µM, first compound 0.1 µM
[21] = second compound 0.000949 µM, first compound 0.316 µM
[22] = second compound 0.000949 µM, first compound 1 µM
[23] = second compound 0.000949 µM, first compound 3.16 µM
[24] = second compound 0.000949 µM, first compound 10 µM
[25] = second compound 0.003 µM, first compound 0.0316 µM
[26] = second compound 0.003 µM, first compound 0.1 µM
[27] = second compound 0.003 µM, first compound 0.316 µM
[28] = second compound 0.003 µM, first compound 1 µM
[29] = second compound 0.003 µM, first compound 3.16 µM
[30] = second compound 0.003 µM, first compound 10 µM

Work on `Cc1cc(C)c(CNC(=O)c2cc(-c3ccc(CN4CCOCC4)cc3)cc3c2cnn3C2CCCC2)c(=O)[nH]1` + COc1cc2c(cc1O)CCNC21CSC2c3c(OC(C)=O)c(C)c4c(c3C(COC1=O)N1C(O)C3Cc5cc(C)c(OC)c(O)c5C(C21)N3C)OCO4 yielded a pIC50 (second compound 30 pM) of under 5.00, a pIC50 (second compound 94.9 pM) of over 7.50 and a pIC50 (second compound 0.0003 µM) of over 7.50. The pIC50 (second compound 0.000949 µM) was over 7.50, the pIC50 (second compound 0.003 µM) was over 7.50 and the viability, T/C [1] was 90.3%. For the same molecule, the viability, T/C [2] was 100%, the viability, T/C [3] was 92.1% and the viability, T/C [4] was 78.7%. It also gave a viability, T/C [5] of 83.1%, a viability, T/C [6] of 56.2% and a viability, T/C [7] of 24%. The viability, T/C [8] was 26.2%, the viability, T/C [9] was 37.6% and the viability, T/C [10] was 25.5%. For the same molecule, the viability, T/C [11] was 40.4%, the viability, T/C [12] was 32.2% and the viability, T/C [13] was 6.57%. For the same molecule, the viability, T/C [14] was 8.67%, the viability, T/C [15] was 7.48% and the viability, T/C [16] was 8.65%. For the same molecule, the viability, T/C [17] was 11.9%, the viability, T/C [18] was 6.02% and the viability, T/C [19] was 6.46%. The viability, T/C [20] was 7.33%, the viability, T/C [21] was 6.11% and the viability, T/C [22] was 6.61%. It also gave a viability, T/C [23] of 7.09%, a viability, T/C [24] of 4.83% and a viability, T/C [25] of 0.34%. It also gave a viability, T/C [26] of 0.8%, a viability, T/C [27] of 0.7% and a viability, T/C [28] of 1.08%. For the same molecule, the viability, T/C [29] was 0.44% and the viability, T/C [30] was 0.8%.
With `Cc1sc2c(c1C)C(c1ccc(Cl)cc1)=NC(CC(=O)Nc1ccc(O)cc1)c1nnc(C)n1-2` (stereo not given) + COc1cc2c(cc1O)CCNC21CSC2c3c(OC(C)=O)c(C)c4c(c3C(COC1=O)N1C(O)C3Cc5cc(C)c(OC)c(O)c5C(C21)N3C)OCO4 the pIC50 (second compound 30 pM) was 6.86, the pIC50 (second compound 94.9 pM) was over 8.02 and the pIC50 (second compound 0.0003 µM) was over 8.02. It also gave a pIC50 (second compound 0.000949 µM) of over 8.02, a pIC50 (second compound 0.003 µM) of over 8.02 and a viability, T/C (second compound 30 pM, first compound 0.00949 µM) of 77.2%. The viability, T/C (second compound 30 pM, first compound 0.03 µM) was 90.2%, the viability, T/C (second compound 30 pM, first compound 0.0949 µM) was 69.2% and the viability, T/C (second compound 30 pM, first compound 0.3 µM) was 11.1%. The viability, T/C (second compound 30 pM, first compound 0.949 µM) was 3.27%, the viability, T/C (second compound 30 pM, first compound 3 µM) was 2.11% and the viability, T/C (second compound 94.9 pM, first compound 0.00949 µM) was 34.7%. It also gave a viability, T/C (second compound 94.9 pM, first compound 0.03 µM) of 33.6%, a viability, T/C (second compound 94.9 pM, first compound 0.0949 µM) of 35% and a viability, T/C (second compound 94.9 pM, first compound 0.3 µM) of 7.23%. The viability, T/C (second compound 94.9 pM, first compound 0.949 µM) was 3.48%, the viability, T/C (second compound 94.9 pM, first compound 3 µM) was 1.41% and the viability, T/C (second compound 0.0003 µM, first compound 0.00949 µM) was 8.51%. The viability, T/C (second compound 0.0003 µM, first compound 0.03 µM) was 6.28%, the viability, T/C (second compound 0.0003 µM, first compound 0.0949 µM) was 6.64% and the viability, T/C (second compound 0.0003 µM, first compound 0.3 µM) was 4.03%. The viability, T/C (second compound 0.0003 µM, first compound 0.949 µM) was 1.94%, the viability, T/C (second compound 0.0003 µM, first compound 3 µM) was 2.8% and the viability, T/C (second compound 0.000949 µM, first compound 0.00949 µM) was 6.63%. The viability, T/C (second compound 0.000949 µM, first compound 0.03 µM) was 6.95%, the viability, T/C (second compound 0.000949 µM, first compound 0.0949 µM) was 4.47% and the viability, T/C (second compound 0.000949 µM, first compound 0.3 µM) was 1.87%. For the same molecule, the viability, T/C (second compound 0.000949 µM, first compound 0.949 µM) was 1.26%, the viability, T/C (second compound 0.000949 µM, first compound 3 µM) was 0.53% and the viability, T/C (second compound 0.003 µM, first compound 0.00949 µM) was 0.27%. The viability, T/C (second compound 0.003 µM, first compound 0.03 µM) was 0.37%, the viability, T/C (second compound 0.003 µM, first compound 0.0949 µM) was 0.18% and the viability, T/C (second compound 0.003 µM, first compound 0.3 µM) was 0.13%. The viability, T/C (second compound 0.003 µM, first compound 0.949 µM) was 0.18% and the viability, T/C (second compound 0.003 µM, first compound 3 µM) was 0.31%.
With `[2H]c1nc(C)nc([2H])c1-c1cc(NC[C@@H](C)c2cccc3c(C(=O)NC)ccnc23)ncn1` + COc1cc2c(cc1O)CCNC21CSC2c3c(OC(C)=O)c(C)c4c(c3C(COC1=O)N1C(O)C3Cc5cc(C)c(OC)c(O)c5C(C21)N3C)OCO4 the pIC50 (second compound 30 pM) was under 5.00, the pIC50 (second compound 94.9 pM) was over 7.50 and the pIC50 (second compound 0.0003 µM) was over 7.50. The pIC50 (second compound 0.000949 µM) was over 7.50, the pIC50 (second compound 0.003 µM) was over 7.50 and the viability, T/C [1] was 89.5%. It also gave a viability, T/C [2] of 82.5%, a viability, T/C [3] of 71.9% and a viability, T/C [4] of 66.6%. It also gave a viability, T/C [5] of 76.8%, a viability, T/C [6] of 79.7% and a viability, T/C [7] of 20.4%. It also gave a viability, T/C [8] of 32.3%, a viability, T/C [9] of 38.6% and a viability, T/C [10] of 28.9%. For the same molecule, the viability, T/C [11] was 22.1%, the viability, T/C [12] was 29.2% and the viability, T/C [13] was 6.45%. For the same molecule, the viability, T/C [14] was 6.02%, the viability, T/C [15] was 6.77% and the viability, T/C [16] was 8.36%. It also gave a viability, T/C [17] of 6.88%, a viability, T/C [18] of 7.14% and a viability, T/C [19] of 7.69%. The viability, T/C [20] was 7.59%, the viability, T/C [21] was 6.74% and the viability, T/C [22] was 6.63%. The viability, T/C [23] was 6.53%, the viability, T/C [24] was 7.49% and the viability, T/C [25] was 0.31%. The viability, T/C [26] was 0.58%, the viability, T/C [27] was 0.16% and the viability, T/C [28] was 0.86%. The viability, T/C [29] was 0.13% and the viability, T/C [30] was 0.24%.
